Results as given in ChEMBL document CHEMBL1201862, “PubChem BioAssay data set” (2004).
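Interpolation was linear, between the two tested concentrations surrounding the appropriate level; five concentrations were tested over 48 hours in 96-well plates. Abbreviation: GI50, concentration required for 50% inhibition of growth.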 Calls of active or inactive are those of the source. Rule as the data show it: active = GI50 up to about 1.1 µM and inactive = higher. *1 amine or outer side, *2 acyl side, *3 side chain or, on linkers, in order; H or OH if unused. Where a SMILES comes first, the peptide text is derived from it. Bridges are numbered along the chain shown (N, C = ends). [ ]: non-standard residue; d: D form. The star is where a group is joined. X56 = CC(C)C(C)C(C(=O)[*:2])N(C)[*:1]; Picolinoyl(3-OH) = O=C(c1ncccc1O)*; NMePhg = CN[CH](C(=O)O)c1ccccc1; Hyp = O=C(O)[CH]1C[CH](O)CN1; Sar = CNCC(=O)O

Assays:
Assay in all cases: NCI tumour cell line growth inhibition, 48 h
MDA-N = system: MDA-N
T47D = system: T47D
BT-549 = system: BT-549
LXFL 529 = system: LXFL 529
DU-145 = system: DU-145
DMS-273 = system: DMS-273
XF498 = system: XF498
DMS-114 = system: DMS-114
RXF 631 = system: RXF 631

| SMILES | GI50 (MDA-N) | GI50 (T47D) | GI50 (BT-549) | GI50 (LXFL 529) | GI50 (DU-145) | GI50 (DMS-273) | GI50 (XF498) | GI50 (DMS-114) | GI50 (RXF 631) |
| --- | --- | --- | --- | --- | --- | --- | --- | --- | --- |
| CCOC(=O)C(CC(C)C)NC(=O)C(Cc1ccc(N(CCCl)CCCl)cc1)NC(C)=O (centres undefined) | 2.67 µM (inactive) | 2.17 µM (inactive) | 6.67 µM (inactive) | 12.4 µM (inactive) | 5.93 µM (inactive) | 4.47 µM (inactive) | 0.406 µM (active) | 0.849 µM (active) | – |
| COc1ccc(-c2ccc(CC(=O)O)cc2)cc1OC | – | – | – | > 100 µM (inactive) | – | – | 20.7 µM (inactive) | > 100 µM (inactive) | – |
| N#CC(Nc1cccc(C(F)(F)F)c1)c1ccccc1C(F)(F)F (centres undefined) | – | – | – | 6.17 µM (inactive) | – | 8.04 µM (inactive) | 3.94 µM (inactive) | 8.91 µM (inactive) | – |
| O=C(/C=C/c1c(O)ccc2ccccc12)c1cccc2ccccc12 | – | – | – | > 83.6 µM (inactive) | – | > 100 µM (inactive) | > 100 µM (inactive) | > 59.7 µM (inactive) | – |
| COC1/C=C\C=C(/C)C(=O)NC2=CC(=O)C=C(C2=O)C(OC)C(C)CC(OC)C(OC)C(C)/C=C(/C)C1OC(N)=O (centres undefined) | – | – | – | – | – | 12 µM (inactive) | 1.87 µM (inactive) | 1.12 µM (inactive) | – |
| NCCSc1nc(N)c2ncn(C3OC(CO)C(O)C3O)c2n1 (centres undefined) | – | – | – | – | – | > 100 µM (inactive) | > 100 µM (inactive) | > 100 µM (inactive) | – |
| NC1=NN(c2ccccc2)C(=O)C1C(=O)C(=O)Nc1ccc(Cl)cc1 (centres undefined) | – | – | – | > 100 µM (inactive) | – | > 100 µM (inactive) | – | > 100 µM (inactive) | > 100 µM (inactive) |
| CSCC[C@@H]1C(=O)N(C)[C@H](C(C)(C)C)N1C(=O)c1ccccc1 | – | – | – | – | – | > 100 µM (inactive) | > 100 µM (inactive) | > 100 µM (inactive) | – |
| CC(C)CC1NC(=O)C(NC(=O)c2ncccc2O)C(C)OC(=O)C(c2ccccc2)N(C)C(=O)C(C)NC(=O)C(C(C)C(C)C)N(C)C(=O)CN(C)C(=O)C2CC(O)CN2C1=O (centres undefined) ({Picolinoyl(3-OH)}-TL[Hyp][Sar][X56]A[NMePhg]; ester 1-C; configuration not given here) | – | – | – | – | – | 34.8 µM (inactive) | 35.6 µM (inactive) | > 119 µM (inactive) | – |
| CCCCCCCCCCCCCCCCCCC1=C(O)C(=O)C=C(OC)C1=O | – | – | – | 29.6 µM (inactive) | – | 55.2 µM (inactive) | > 100 µM (inactive) | 21.7 µM (inactive) | – |
| COc1ccc2c(c1)[n+]([O-])c(/C(C)=N/NC(N)=S)c(C)[n+]2[O-] | 51.3 µM (inactive) | 49.2 µM (inactive) | 90.4 µM (inactive) | 51.6 µM (inactive) | 44.2 µM (inactive) | – | 39 µM (inactive) | 36 µM (inactive) | 44.4 µM (inactive) |
| CCC1CN2CCC3(c4ccccc4)CC(C(=O)OC)=CC1C23 (centres undefined) | – | – | – | 15.4 µM (inactive) | – | – | 0.183 µM (active) | – | 15 µM (inactive) |
| CC1=C[C@]2(O)C(=O)[C@H](C)C[C@H]3[C@@H](CC[C@@](C)(O)/C=C\2C1=O)C3(C)C | – | – | – | 16.8 µM (inactive) | – | 22.4 µM (inactive) | 16.3 µM (inactive) | 22.6 µM (inactive) | 31.1 µM (inactive) |
| CN(C)c1ccc(/C=C/C(=O)C(C)(C)C)cc1Br | – | – | – | 30 µM (inactive) | – | – | 15 µM (inactive) | 18.5 µM (inactive) | – |
| Cc1ccc(SC(CCC(Sc2ccc(C)cc2)Sc2ccc(C)cc2)Sc2ccc(C)cc2)cc1 | – | – | – | – | – | > 100 µM (inactive) | > 100 µM (inactive) | > 100 µM (inactive) | > 100 µM (inactive) |
| CCCNC(=O)Nc1c([N+](=O)[O-])cc(C(F)(F)F)cc1[N+](=O)[O-] | – | – | – | 55.2 µM (inactive) | – | > 100 µM (inactive) | 35.6 µM (inactive) | – | 12.7 µM (inactive) |
| CC1=CCC2(C#N)CCC1C2O (centres undefined) | – | – | – | > 100 µM (inactive) | – | 19.7 µM (inactive) | > 100 µM (inactive) | > 100 µM (inactive) | – |
| COc1ccccc1/N=N/c1c(-c2ccccc2)nn(C(=O)CC(=O)Nc2ccccc2Cl)c1-c1ccccc1 | – | – | – | > 100 µM (inactive) | – | > 100 µM (inactive) | > 100 µM (inactive) | > 100 µM (inactive) | – |
| COc1cc2c(cc1OC)C(=O)Cc1ccc3c(c1CNCC2)OCO3 | – | – | – | > 100 µM (inactive) | – | – | > 100 µM (inactive) | > 100 µM (inactive) | – |
| OCC12C=CC(C1)c1ccccc12 (centres undefined) | – | – | – | > 100 µM (inactive) | – | > 100 µM (inactive) | – | > 100 µM (inactive) | > 100 µM (inactive) |
| N#CC1=C(N)n2c(s/c(=C\c3ccc(Cl)cc3)c2=O)=C(c2nc3ccccc3[nH]2)C1c1ccc(Cl)cc1 (centres undefined) | – | – | – | 1.9 µM (inactive) | – | 2.12 µM (inactive) | 1.63 µM (inactive) | 1.99 µM (inactive) | – |
| Cc1cc(C)nc(NS(=O)(=O)c2ccc(Nc3c4ccccc4nc4c(C(=O)Nc5ccc(S(=O)(=O)Nc6cc(C)on6)cc5)cccc34)cc2)n1 | – | – | – | 17.9 µM (inactive) | – | 23.8 µM (inactive) | 22.5 µM (inactive) | 19.1 µM (inactive) | – |
| NNC(=O)/C(NC(=O)c1ccccc1)=C(\N)c1cccc([N+](=O)[O-])c1 | – | – | – | > 100 µM (inactive) | – | > 100 µM (inactive) | > 100 µM (inactive) | > 100 µM (inactive) | > 100 µM (inactive) |
| CC(C)c1cccc(C(C)C)c1NC(=O)C(=O)C1CCC2=C(Sc3ccccc3N2)C1=O (centres undefined) | – | – | – | 44.2 µM (inactive) | – | 40.5 µM (inactive) | – | 52.8 µM (inactive) | 4.18 µM (inactive) |
| COC(=O)c1nc(-c2ccc3c(n2)C(=O)C(=N)C(OC)=C3O)c(N)c(-c2ccc(OC)c(OC)c2O)c1C | – | – | – | – | – | 0.303 µM (active) | 1.18 µM (inactive) | 0.415 µM (active) | – |
| COc1ccc(C2C3CCCC(C3=O)C(c3ccc(OC)cc3)N2N=O)cc1 (centres undefined) | – | – | – | – | – | 23 µM (inactive) | 33.7 µM (inactive) | 23.1 µM (inactive) | – |
| Cc1ccc2[nH]c3c(C)c4cc[n+](C)cc4c(C)c3c2c1 | 4.03 µM (inactive) | 1.55 µM (inactive) | 0.753 µM (active) | 0.743 µM (active) | 0.628 µM (active) | 2.33 µM (inactive) | – | 0.61 µM (active) | – |
| CCCSCC(P(=O)(O)O)P(=O)(O)O.NC1CCCCC1 | – | – | – | – | – | > 100 µM (inactive) | > 100 µM (inactive) | > 100 µM (inactive) | – |
| COc1cccc2c1C(=O)c1c(O)c3c(c(O)c1C2=O)C[C@@](O)(C(C)=O)CC3S(=O)(=O)O (some centres undefined) | – | – | – | > 100 µM (inactive) | – | > 100 µM (inactive) | > 100 µM (inactive) | > 100 µM (inactive) | > 100 µM (inactive) |
